According to patent US10239873B2, “7-azaindole or 4,7-diazaindole derivatives as IKKϵ epsilon and TBK1 inhibitor and pharmaceutical composition comprising same” (GREEN CROSS CORPORATION, priority 2015, dated 2019):
pIC50: −log10 of the molar value. Counter-ions that a name gives are not always drawn.

What was measured:
TBK1 = biological target: T1, TBK1 (Homo sapiens, UniProt Q9UHD2); assay: ADP-Glo Kinase Assay, inhibition activity on TBK1; assay type: biochemical
T1 construct: purchased Promega (Invitrogen is also named in the same bracket) V4158; PR8031B; V3991 (not assigned to the two kinases)
T1 sequence (Q9UHD2 1-729): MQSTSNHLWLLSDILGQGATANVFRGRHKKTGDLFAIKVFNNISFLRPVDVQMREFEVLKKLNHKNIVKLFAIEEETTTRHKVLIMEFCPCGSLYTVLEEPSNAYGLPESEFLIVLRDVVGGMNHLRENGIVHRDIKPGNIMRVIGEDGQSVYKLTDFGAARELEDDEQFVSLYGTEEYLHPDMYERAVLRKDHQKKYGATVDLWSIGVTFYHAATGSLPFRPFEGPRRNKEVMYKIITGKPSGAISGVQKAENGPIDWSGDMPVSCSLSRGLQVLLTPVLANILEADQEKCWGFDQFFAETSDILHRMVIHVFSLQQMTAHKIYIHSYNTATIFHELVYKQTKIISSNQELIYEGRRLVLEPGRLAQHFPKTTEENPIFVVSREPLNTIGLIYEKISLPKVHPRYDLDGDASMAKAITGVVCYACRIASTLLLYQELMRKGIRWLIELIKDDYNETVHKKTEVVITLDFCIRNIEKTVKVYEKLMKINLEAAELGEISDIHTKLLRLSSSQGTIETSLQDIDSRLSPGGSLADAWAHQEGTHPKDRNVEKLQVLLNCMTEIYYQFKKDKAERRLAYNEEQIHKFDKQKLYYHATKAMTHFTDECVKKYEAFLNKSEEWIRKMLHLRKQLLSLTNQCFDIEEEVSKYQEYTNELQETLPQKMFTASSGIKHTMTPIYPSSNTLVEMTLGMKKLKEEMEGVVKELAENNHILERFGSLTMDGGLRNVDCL
Procedure, shortened: (§1)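 Kinase activity measured with the ADP-Glo luminescent ADP-detection kit per manufacturer's protocol, using IKKε or TBK1 kinase enzyme systems. Reaction buffer: 40 mM Tris (pH 7.5), 20 mM MgCl2, 0.1 mg/mL BSA; luminescence read on a luminometer.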

IKKε = biological target: T2, IKKε (Homo sapiens, UniProt Q14164); assay: ADP-Glo Kinase Assay, inhibition activity on IKKε; assay type: biochemical
T2 construct: purchased Promega and/or Invitrogen V4158; PR8031B; V3991 (not assigned to the two kinases)
T2 sequence (Q14164 1-716): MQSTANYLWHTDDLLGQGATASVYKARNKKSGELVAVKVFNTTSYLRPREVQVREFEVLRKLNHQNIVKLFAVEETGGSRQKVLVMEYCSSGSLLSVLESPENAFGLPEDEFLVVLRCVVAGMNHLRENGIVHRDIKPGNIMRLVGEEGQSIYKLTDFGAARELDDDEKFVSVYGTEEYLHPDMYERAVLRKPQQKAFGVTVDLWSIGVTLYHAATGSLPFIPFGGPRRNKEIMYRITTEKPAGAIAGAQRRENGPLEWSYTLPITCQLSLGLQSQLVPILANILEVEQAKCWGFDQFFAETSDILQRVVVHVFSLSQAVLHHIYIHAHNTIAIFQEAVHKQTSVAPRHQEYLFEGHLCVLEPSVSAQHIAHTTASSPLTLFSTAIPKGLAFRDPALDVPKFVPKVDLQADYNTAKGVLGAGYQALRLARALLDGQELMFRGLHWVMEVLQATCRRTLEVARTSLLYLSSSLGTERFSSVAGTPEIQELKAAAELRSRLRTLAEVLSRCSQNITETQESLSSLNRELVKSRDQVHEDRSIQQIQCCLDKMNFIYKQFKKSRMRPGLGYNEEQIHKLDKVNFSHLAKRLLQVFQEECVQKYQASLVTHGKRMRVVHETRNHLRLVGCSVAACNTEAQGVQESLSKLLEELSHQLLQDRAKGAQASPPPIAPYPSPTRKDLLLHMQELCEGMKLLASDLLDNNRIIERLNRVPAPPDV
Procedure, shortened: as §1

Row | Structure (SMILES) | pIC50 (TBK1) | pIC50 (IKKε)
1 | O=C(NC1CC1)N1CC=C(c2c[nH]c3ncc(-c4ccc(CN5CCNCC5)s4)cc23)CC1 [Example 45, N-cyclopropyl-4-(5-(5-(piperazin-1-ylmethyl)thiophen-2-yl)-1H-pyrrolo[2,3-b]pyridin-3-yl)-5,6-dihydropyridine-1(2H)-carboxamide dihydrochloride] | 8.48 | 7.62
2 | CN1CCN(Cc2ccc(-c3cnc4[nH]cc(C5=CCN(C(=O)NC6CC6)CC5)c4c3)s2)CC1 [Example 47, N-cyclopropyl-4-(5-(5-((4-methylpiperazin-1-yl)methyl)thiophen-2-yl)-1H-pyrrolo[2,3-b]pyridin-3-yl)-5,6-dihydropyridine-1(2H)-carboxamide] | 8.44 | 7.92
3 | CN1CC=C(c2c[nH]c3ncc(-c4ccc(CN5CCOCC5)s4)cc23)CC1 [Example 1, 4-((5-(3-(1-Methyl-1,2,3,6-tetrahydropyridin-4-yl)-1H-pyrrolo[2,3-b]pyridin-5-yl)thiophen-2-yl)methyl)morpholine] | 5.16 | < 5.00
4 | CC(C)NC(=O)N1CCC(c2c[nH]c3ncc(-c4ccc(C(=O)N5CCN(C)CC5)cc4)cc23)=CC1C (stereo not shown) [Example 89, N-isopropyl-2-methyl-4-(5-(4-(4-methylpiperazine-1-carbonyl)phenyl)-1H-pyrrolo[2,3-b]pyridin-3-yl)-5,6-dihydropyridine-1(2H)-carboxamide] | 8.55 | 8.48
5 | CS(=O)(=O)c1cccc(-c2cnc3[nH]cc(C4=CCN(C(=O)NC5CCCC5)CC4)c3n2)c1 [Example 228, N-cyclopentyl-4-(2-(3-(methylsulfonyl)phenyl)-5H-pyrrolo[2,3-b]pyrazin-7-yl)-5,6-dihydropyridine-1(2H)-carboxamide] | 7.05 | 6.40
6 | CCC1C=C(c2c[nH]c3ncc(-c4ccc(CN5CCOCC5)cc4)cc23)CCN1C(=O)NC(C)C (stereo not shown) [Example 112, 6-Ethyl-N-isopropyl-4-(5-(4-(morpholinomethyl)phenyl)-1H-pyrrolo[2,3-b]pyridin-3-yl)-3,6-dihydropyridine-1(2H)-carboxamide] | 7.25 | 7.21
7 | O=C(c1cccs1)N1CC=C(c2c[nH]c3ncc(-c4ccc(S(=O)(=O)N5CCOCC5)cc4)cc23)CC1 [Example 190, (4-(5-(4-(Morpholinosulfonyl)phenyl)-1H-pyrrolo[2,3-b]pyridin-3-yl)-5,6-dihydropyridin-1(2H)-yl)(thiophen-2-yl)methanone] | 6.85 | 6.41
8 | Cc1ccc(-c2cnc3[nH]cc(C4=CCN(C(=O)NC(C)C)CC4)c3c2)cc1 [Example 16, N-isopropyl-4-(5-(p-tolyl)-1H-pyrrolo[2,3-b]pyridin-3-yl)-3,6-dihydropyridine-1(2H)-carboxamide] | 7.44 | 6.55
